According to patent publication US10344024B2, “Compounds as ROR gamma modulators” (Glenmark Pharmaceuticals S.A., priority 2015, dated 2019):

Target: T1, GST-tagged ROR gamma ligand binding domain (LBD) (Homo sapiens, UniProt P51449)
T1 construct: purchased Invitrogen
T1 sequence (P51449 269-508 limits assumed): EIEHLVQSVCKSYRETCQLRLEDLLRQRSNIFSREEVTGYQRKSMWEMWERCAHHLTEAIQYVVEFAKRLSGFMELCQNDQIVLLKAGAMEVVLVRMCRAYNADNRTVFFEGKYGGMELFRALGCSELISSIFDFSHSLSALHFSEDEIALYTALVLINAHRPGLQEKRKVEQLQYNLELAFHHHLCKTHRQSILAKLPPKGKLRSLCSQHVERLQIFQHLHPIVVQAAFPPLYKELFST
Test: TR-FRET assay for ROR gamma (LanthaScreen co-activator peptide recruitment)
Assay type: biochemical
Conditions: for inhibition at 1 µM: compound concentration 1 μM; for inhibition at 1 µM / inhibition at 10 µM: TR-FRET ratio 520/495, percent of control; for inhibition at 10 µM: compound concentration 10 μM; for IC50: from dose response curve, nonlinear regression, read-out: IC50 range
Source text: The compounds described herein were screened for ROR gamma modulator activity using the TR-FRET assay (LanthaScreen™ available from Invitrogen of Carlsbad, Calif.) as described in JBC 2011, 286, 26: 22707-10; and Drug Metabolism and Disposition 2009, 37, 10: 2069-78.
Binding of the co-activator peptide, causes an increase in the TR-FRET signal while binding of an antagonist decreases the recruitment of the co-activator peptide, causing a decrease in the TR-FRET signal compared to control with no compound. The assay was performed using a two-step procedure, pre-incubation step with the compound followed by the detection step on addition of the anti-GST tagged terbium (Tb) and fluorescein tagged fluorophores as the acceptor.
Test compounds or reference compounds such as T0901317 (Calbiochem) were dissolved in dimethylsulfoxide (DMSO) to prepare 10.0 mM stock solutions and diluted to the desired concentration. The final concentration of DMSO in the reaction was 4% (v/v). The assay mixture was prepared by mixing 10 nM of the GST-tagged ROR gamma ligand binding domain (LBD) in the assay buffer containing 25 mM HEPES (pH 7.4), 100 mM NaCl, 5 mM DTT and 0.01% BSA with or without the desired concentration of the compound. The reaction was incubated at 22° C. for 1 hour. The pre-incubation step was terminated by addition of the detection mixture containing 300 nM Fluorescein-D22 co-activator peptide and 10 nM lantha screen Tb-anti GST antibody into the reaction mixture.
After shaking for 5 minutes the reaction was further incubated for 1 hour at room temperature and read at 4° C. on an Infinite F500 reader as per the kit instructions (Invitrogen). The inhibition of test compound was calculated based on the TR-FRET ratio of 520/495. The activity was calculated as a percent of control reaction. IC50 values were calculated from dose response curve by nonlinear regression analysis using GraphPad Prism software.

Structure (SMILES) | inhibition at 1 µM | inhibition at 10 µM | IC50
CC(O)C(F)(F)c1ccc(CC(=O)Nc2ccc(-c3nccnc3N3CC(OCc4ccccc4)C3)cc2)cc1 (stereo not shown) [Example 94, N-(4-(3-(3-(Benzyloxy)azetidin-1-yl)pyrazin-2-yl)phenyl)-2-(4-(1,1-difluoro-2-hydroxypropyl)phenyl)acetamide] | 15.8% | 45.6% | –
CC(O)C(F)(F)c1ccc(CC(=O)Nc2ccc(-c3nccnc3N[C@@H](C)c3ccccc3Cl)c(F)c2)cc1 (stereo partly drawn) [Example 74, N-(4-(3-(((S)-1-(2-Chlorophenyl)ethyl)amino)pyrazin-2-yl)-3-fluorophenyl)-2-(4-(1,1-difluoro-2-hydroxypropyl)phenyl)acetamide] | 79.2% | 89.9% | 50 to 100 nM
CCC(F)(F)c1ccc(CC(=O)Nc2ccc(-c3nccnc3N(C)[C@H](C)c3ccccc3)cc2)cc1 [Example 60, (R)-2-(4-(1,1-Difluoropropyl)phenyl)-N-(4-(3-(methyl(1-phenylethyl)amino)pyrazin-2-yl)phenyl)acetamide] | 69.6% | 83% | 100 to 500 nM
CCC(F)(F)c1ccc(CC(=O)Nc2ccc(-c3nccnc3N3CCN(C)CC3)cc2)cc1 [Example 32, 2-(4-(1,1-Difluoropropyl)phenyl)-N-(4-(3-(4-methylpiperazin-1-yl)pyrazin-2-yl)phenyl)acetamide] | 15.3% | 65.1% | –
CC(O)C(F)(F)c1ccc(CC(=O)Nc2ccc(-c3nccnc3O[C@H](C)c3ccccc3Cl)cc2)cc1 (stereo partly drawn) [Example 84, N-(4-(3-((R)-1-(2-Chlorophenyl)ethoxy)pyrazin-2-yl)phenyl)-2-(4-(1,1-difluoro-2-hydroxypropyl)phenyl)acetamide] | 83.8% | 81.9% | 50 to 100 nM
CCC(F)(F)c1ccc(CC(=O)Nc2ccc(-c3cnn(C(C)(C)C)c3-c3ccc(F)cc3)cc2)cc1 [Example 21, N-(4-(1-(tert-Butyl)-5-(4-fluorophenyl)-1H-pyrazol-4-yl)phenyl)-2-(4-(1,1-difluoropropyl)phenyl)acetamide] | 37.4% | 38.3% | –
CCC(F)(F)c1ccc(CC(=O)Nc2ccc(-n3nc(C)cc3-c3ccc(F)cc3)cc2)cc1 [Example 20, 2-(4-(1,1-Difluoropropyl)phenyl)-N-(4-(5-(4-fluorophenyl)-3-methyl-1H-pyrazol-1-yl)phenyl)acetamide] | 65.5% | 78% | –
CC(O)C(F)(F)c1ccc(CC(=O)Nc2ccc(-c3nccnc3N3CCOCC3)cc2)cc1 (stereo not shown) [Example 19, 2-(4-(1,1-Difluoro-2-hydroxypropyl)phenyl)-N-(4-(3-morpholinopyrazin-2-yl)phenyl)acetamide] | 42.2% | 48.8% | –
CCC(F)(F)c1ccc(CC(=O)Nc2ccc(-c3nccnc3NC(CO)c3ccccc3)cc2)cc1 (stereo not shown) [Example 97, 2-(4-(1,1-Difluoropropyl)phenyl)-N-(4-(3-((2-hydroxy-1-phenylethyl)amino)pyrazin-2-yl)phenyl)acetamide] | 22.5% | 46.2% | –
CC(O)C(F)(F)c1ccc(CC(=O)Nc2ccc(-c3nccnc3N[C@@H](C)c3ccc(Cl)cc3)cc2)cc1 (stereo partly drawn) [Example 72, N-(4-(3-(((S)-1-(4-Chlorophenyl)ethyl)amino)pyrazin-2-yl)phenyl)-2-(4-(1,1-difluoro-2-hydroxypropyl)phenyl)acetamide] | 86.9% | 93.4% | < 50 nM
CCC(F)(F)c1ccc(CC(=O)Nc2ccc(-c3nccnc3N(C)c3ccc(Cl)cc3)cc2)cc1 [Example 55, N-(4-(3-((4-Chlorophenyl)(methyl)amino)pyrazin-2-yl)phenyl)-2-(4-(1,1-difluoropropyl)phenyl)acetamide] | 56.5% | 64.6% | –
CC(O)C(F)(F)c1ccc(CC(=O)Nc2ccc(-c3nccnc3N[C@@H](C)c3ccccc3Cl)cc2F)cc1 (stereo partly drawn) [Example 73, N-(4-(3-(((S)-1-(2-Chlorophenyl)ethyl)amino)pyrazin-2-yl)-2-fluorophenyl)-2-(4-(1,1-difluoro-2-hydroxypropyl)phenyl)acetamide] | 78.5% | 89.2% | 100 to 500 nM
CC(O)C(F)(F)c1ccc(CC(=O)Nc2ccc(-c3nccnc3OCc3ccccc3Cl)cc2)cc1 (stereo not shown) [Example 91, N-(4-(3-((2-Chlorobenzyl)oxy)pyrazin-2-yl)phrnyl)-2-(4-(1,1-difluoro-2-hydroxypropyl)phenyl)acetamide] | 79.3% | 82.6% | < 50 nM
CCC(F)(F)c1ccc(CC(=O)Nc2ccc(-c3nccnc3N3C[C@@H](C)O[C@@H](C)C3)cc2)cc1 [Example 36, 2-(4-(1,1-Difluoropropyl)phenyl)-N-(4-(3-((25,6R)-2,6-dimethylmorpholino)pyrazin-2-yl)phenyl)acetamide] | 2.6% | 8.3% | –
Cc1ccc(-c2nccnc2-c2ccc(NC(=O)Cc3ccc(C(F)(F)C(C)O)cc3)cc2)c(C)c1 (stereo not shown) [Example 51, 2-(4-(1,1-Difluoro-2-hydroxypropyl)phenyl)-N-(4-(3-(2,4-dimethylphenyl)pyrazin-2-yl)phenyl)acetamide] | 73.2% | 81% | < 50 nM
CCC(F)(F)c1ccc(CC(=O)Nc2ccc(-n3nc(C(F)(F)F)cc3-c3ccccc3Cl)cc2)cc1 [Example 29, N-(4-(5-(2-Chlorophenyl)-3-(trifluoromethyl)-1H-pyrazol-1-yl)phenyl)-2-(4-(1,1-difluoropropyl)phenyl)acetamide] | 77.1% | 79.8% | < 50 nM
CCC(F)(F)c1ccc(CC(=O)Nc2ccc(-c3nccnc3N3CCN(C(C)=O)CC3)cc2)cc1 [Example 24, N-(4-(3-(4-Acetylpiperazin-1-yl)pyrazin-2-yl)phenyl)-2-(4-(1,1-difluoropropyl)phenyl)acetamide] | 61.6% | 83.6% | –
CCC(F)(F)c1ccc(CC(=O)Nc2ccc(-c3nccnc3-c3ccc(OC)cc3)cc2)cc1 [Example 27, 2-(4-(1,1-Difluoropropyl)phenyl)-N-(4-(3-(4-methoxyphenyl)pyrazin-2-yl)phenyl)acetamide] | 78.6% | 83.5% | < 50 nM
CCC(F)(F)c1ccc(CC(=O)Nc2ccc(-c3nccnc3N(C)[C@@H](C)c3ccccc3)cc2)cc1 [Example 62, (S)-2-(4-(1,1-Difluoropropyl)phenyl)-N-(4-(3-(methyl(1-phenylethyl)amino)pyrazin-2-yl)phenyl)acetamide] | 65.6% | 84.8% | –
CCc1ccccc1-c1nccnc1-c1ccc(NC(=O)Cc2ccc(C(F)(F)[C@H](C)O)cc2)cc1 [Example 52, (S)-2-(4-(1,1-difluoro-2-hydroxypropyl)phenyl)-N-(4-(3-(2-ethylphenyl)pyrazin-2-yl)phenyl)acetamide] | 78.6% | 84% | < 50 nM
CCC(F)(F)c1ccc(CC(=O)Nc2ccc(-c3nccnc3N[C@@H](C)c3ccc(C)cc3C)cc2)cc1 [Example 69, (S)-2-(4-(1,1-Difluoropropyl)phenyl)-N-(4-(3-((1-(2,4-dimethylphenyl)ethyl)amino)pyrazin-2-yl)phenyl)acetamide] | 97% | 97.1% | < 50 nM
CCC(F)(F)c1ccc(CC(=O)Nc2ccc(-c3nccnc3N[C@@H](C)c3ccc(Cl)cc3)cc2)cc1 [Example 63, (S)-N-(4-(3-((1-(4-Chlorophenyl)ethyl)amino)pyrazin-2-yl)phenyl)-2-(4-(1,1-difluoropropyl)phenyl)acetamide] | 86.8% | 91.2% | 50 to 100 nM
CCC(F)(F)c1ccc(CC(=O)Nc2ccc(-c3nccnc3-c3ccc(C#N)cc3)cc2)cc1 [Example 16, N-(4-(3-(4-Cyanophenyl)pyrazin-2-yl)phenyl)-2-(4-(1,1-difluoropropyl)phenyl)acetamide] | 69.9% | 60.5% | –
Cc1ccc([C@@H](C)Oc2nccnc2-c2ccc(NC(=O)Cc3ccc(C(F)(F)C(C)O)cc3)cc2)c(C)c1 (stereo partly drawn) [Example 98, 2-(4-(1,1-Difluoro-2-hydroxypropyl)phenyl)-N-(4-(3-((R)-1-(2,4-dimethylphenyl)ethoxy)pyrazin-2-yl)phenyl)acetamide] | 89.5% | 89% | < 50 nM
